Tested on: mouse myoblast strain C2C12 (myotube cells)
Assay: Myotube area and maximum transverse diameter of C2C12 myotube cells (anti-MHC immunostaining, imaging analysis)
Format: cell-based
Settings: for Maximum transverse diameter/myotube cell (%) Average value / Myotube area/field of view (%) Average value: two days, untreated control = 100%
Procedure: Cells of mouse myoblast strain C2C12 (ATCC catalog no. CRL-1772)
Proliferation culture medium: DMEM (high glucose) to which 10% FBS and 1% PS are added
Differentiation culture medium: DMEM (high glucose) to which 2% HS and 1% PS are added
The fatty acids indicated below were added to the culture medium so as to reach a concentration of 0.05 mM, 0.2 mM, or 0.5 mM. As a positive control, insulin-like growth factor (IGF-1) (made by Sigma-Aldrich Co., LLC), which is a factor for promoting formation of myotube cells, was added to the culture medium so as to reach a concentration of 10 ng/mL.
The fatty acids were dissolved in dimethyl sulfoxide (DMSO) (made by Nacalai Tesque Inc.) to formulate solutions having a concentration of 0.05 M, 0.2 M, 0.5 M, or 1 M, and the solutions were added in 1/1000 amounts to the culture medium to reach a target final concentration of 0.05 mM, 0.2 mM, 0.5 mM, or 1 mM. The IGF-1 serving as a positive control was formulated to a concentration of 10 μg/mL using 0.1 N HCl, and the resultant solution was added in a 1/1000 amount to the culture medium to reach a target final concentration of 10 ng/mL.
The C2C12 cells were recovered in a T75 flask using the proliferation culture medium and cultured using a CO2 incubator (37° C., 5% CO2, moist; same applies below). The culture medium was replaced at intervals of one to two days. The cells were peeled away (3 to 5 minutes) using 0.25% trypsin-EDTA (made by Nacalai Tesque Inc.) (1 mL) at the point in time when 80% confluence was reached, and 5 mL of culture medium was added, after which the components were centrifuged (180×g, 5 minutes, room temperature). A supernatant was removed, and cell pellets were suspended in fresh culture medium and sown in a 96-well black plate at a rate of 10,000 cells/0.1 mL/well. The next day, the culture medium was replaced with the differentiation culture medium, and culturing was carried out for two days to induce differentiation into myotube cells. The culture medium was then replaced with differentiation culture medium (100 μL) to which the substance under test was added, and culturing was carried out for a further two days.
After treatment with the substance under test, the wells were refilled with 100 μL of a fixing solution (4% PFA: paraformaldehyde (made by Nacalai Tesque Inc.)), incubated for 15 minutes at 4° C., and then washed three times using Dulbecco's Phosphate-Buffered Saline (DPBS) (made by Thermo Fisher Scientific Inc.). 100 μL of a blocking/membrane permeation liquid solution (0.3% TritonX/3% BSA/DPBS) was added, and the components were incubated for 30 minutes at room temperature. The aforementioned solution replaced with a primary antibody solution (primary antibody reagent (diluted by a factor of 300)/3% BSA/DPBS) and then incubated overnight at 4° C. The primary antibody solution was removed, and the wells were washed three times using a blocking solution (3% BSA/DPBS) before being refilled with a secondary antibody solution (secondary antibody reagent (diluted by a factor of 500)/0.1% nucleus-staining reagent/3% BSA/DPBS) and incubated for two hours at room temperature. Finally, the wells were washed three times using DPBS and refilled with new DPBS before imaging analysis was carried out.
An automatic cell image system (“Operetta CLS,” made by PerkinElmer Inc.) was used in the imaging analysis of the immunostained cells. Nine fields of view of central sections of the wells were imaged using a 10× objective lens, and then fluorescent regions marked by the anti-MHC antibodies and cell nucleus regions marked by the nucleus-staining reagent were detected using image analysis software (Harmony 4.6) included with the system. […]

[1] = Table 3 data, 0.5 mM, vs comparative example 3-1
[2] = Table 1 data, 0.5 mM, vs comparative example 1-1, Dunnett's test, 5%
[3] = Table 2 data, 0.2 mM, vs comparative example 2-1
[4] = Table 2 data, 0.5 mM, vs comparative example 2-1

CCCCCCCCCCCCCC(=O)O [Tetradecanoic acid (C14:0), Tetradecanoic acid]
Maximum transverse diameter/myotube cell (%) Average value (Table 3, 0.5 mM): 108.6% | Myotube area/field of view (%) Average value (Table 3, 0.5 mM): 114.7% | Maximum transverse diameter/myotube cell (%) Average value (Table 3, 1 mM): 124.4% | Myotube area/field of view (%) Average value (Table 3, 1 mM): 107.3% | area of the myotube cells within the fields of view, change versus control (in words) [1]: significantly increased | per-cell maximum transverse diameter of the myotube cells, change versus control (in words) [1]: significantly increased | per-cell maximum transverse diameter of the myotube cells, change versus control (in words) (Table 3 data, 1.0 mM, vs comparative example 3-1): significantly increased

IGF-1: insulin-like growth factor (IGF-1), a factor for promoting formation of myotube cells; positive control at 10 ng/mL
Maximum transverse diameter/myotube cell (%) Average value (Table 1, 10 ng/mL): 101.8% | Myotube area/field of view (%) Average value (Table 1, 10 ng/mL): 114.1% | Maximum transverse diameter/myotube cell (%) Average value (Table 2, 10 ng/mL): 99.1% | Myotube area/field of view (%) Average value (Table 2, 10 ng/mL): 126.8% | Maximum transverse diameter/myotube cell (%) Average value (Table 3, 10 ng/mL): 100.4% | Myotube area/field of view (%) Average value (Table 3, 10 ng/mL): 120.5% | Maximum transverse diameter/myotube cell (%) Average value (Table 4, 10 ng/mL): 104.8% | Myotube area/field of view (%) Average value (Table 4, 10 ng/mL): 132.8%

CCCCCCCCCCC(=O)O [Undecanoic acid (C11:0), Undecanoic acid, reference compound]
Maximum transverse diameter/myotube cell (%) Average value (Table 1, 0.5 mM, n=5): 103.1% | Myotube area/field of view (%) Average value (Table 1, 0.5 mM, n=5): 103.4% | effect on the myotube cells (in words) (Table 1 data, 0.5 mM): no effect

CCCCCCCCCCCCC(=O)O [Tridecanoic acid (C13:0), Tridecanoic acid]
Maximum transverse diameter/myotube cell (%) Average value (Table 1, 0.5 mM, n=5): 124.1% | Myotube area/field of view (%) Average value (Table 1, 0.5 mM, n=5): 98.1% | per-cell maximum transverse diameter of the myotube cells, change versus control (in words) [2]: significantly increased

CCCCCCCCCCCCCCCCC(=O)O [Heptadecanoic acid (C17:0), Heptadecanoic acid, reference compound]
Maximum transverse diameter/myotube cell (%) Average value (Table 1, 0.5 mM, n=5): 98.4% | Myotube area/field of view (%) Average value (Table 1, 0.5 mM, n=5): 82.8% | area of the myotube cells within the fields of view, change versus control (in words) [2]: significantly decreased

CCCCCCCCCCCCCCC(=O)O [Pentadecanoic acid (C15:0), Pentadecanoic acid]
Maximum transverse diameter/myotube cell (%) Average value (Table 1, 0.5 mM, n=5): 132.2% | Myotube area/field of view (%) Average value (Table 1, 0.5 mM, n=5): 116.0% | area of the myotube cells within the fields of view, change versus control (in words) [2]: significantly increased | per-cell maximum transverse diameter of the myotube cells, change versus control (in words) [2]: significantly increased | Maximum transverse diameter/myotube cell (%) Average value (Table 2, 0.05 mM): 103.0% | Myotube area/field of view (%) Average value (Table 2, 0.05 mM): 108.0% | Maximum transverse diameter/myotube cell (%) Average value (Table 2, 0.2 mM): 109.3% | Myotube area/field of view (%) Average value (Table 2, 0.2 mM): 119.3% | Maximum transverse diameter/myotube cell (%) Average value (Table 2, 0.5 mM): 111.4% | Myotube area/field of view (%) Average value (Table 2, 0.5 mM): 118.7% | per-cell maximum transverse diameter of the myotube cells, change versus control (in words) (Table 2 data, 0.05 mM, vs comparative example 2-1): significantly increased | area of the myotube cells within the fields of view, change versus control (in words) [3]: significantly increased | per-cell maximum transverse diameter of the myotube cells, change versus control (in words) [3]: significantly increased | area of the myotube cells within the fields of view, change versus control (in words) [4]: significantly increased | per-cell maximum transverse diameter of the myotube cells, change versus control (in words) [4]: significantly increased

CCCCCCCCCCCCCCCC(=O)O [Hexadecanoic acid (C16:0), Hexadecanoic acid, reference compound]
Maximum transverse diameter/myotube cell (%) Average value (Table 4, 0.05 mM): 98.7% | Myotube area/field of view (%) Average value (Table 4, 0.05 mM): 91.4% | Maximum transverse diameter/myotube cell (%) Average value (Table 4, 0.5 mM): 104.9% | Myotube area/field of view (%) Average value (Table 4, 0.5 mM): 80.9% | per-cell maximum transverse diameter of the myotube cells, effect (in words) (Table 4 data, 0.05 mM): no effect | per-cell maximum transverse diameter of the myotube cells, effect (in words) (Table 4 data, 0.5 mM): no effect | area of the myotube cells within the fields of view, change versus control (in words) (Table 4 data, 0.5 mM, vs comparative example 4-1): significantly decreased
